Patent US7968109B2, “Liquid compositions for treating plant propagation materials” (Syngenta Crop Protection Inc., priority 2005, dated 2011)

Tests used:
[1] = test system: Colorado Potato Beetles; assay: Control of Colorado Potato Beetles on potatoes (defoliation); format: in vivo
Description: Comparative trials were conducted to show the protection of the formulation described herein against different insect pests.

[2] = Selective loading of active ingredient on cut side and skin side of tuber; format: physicochemical, potato; settings: analyte fludioxonil
Description: Generally, treatment of potato tubers and/or cut seeds with liquid pesticides results in the majority of the pesticide settling on the cut side of the seed rather than on the skin side of the seed. Such affinity for the cut side is thought to be based on the pesticides' affinity for water. […] Rather, the pesticidal action is more useful on the skin side of the tuber, where the eyes are present and where germination occurs.
Although not wanting to be bound by any particular theory, it is thought that the nonpolar nature of the waxes and silicas present in the formulations of the present invention have affinity for the skin side, causing a greater loading of the active ingredients on the skin side.

Structure (SMILES)	% Defoliation ([1]; 102 days after planting (Wash. State)) [%]	% Defoliation ([1]; 105 days after planting (Idaho)) [%]	Amount of fludioxonil present on cut side of tuber ([2]; cut side)	Amount of fludioxonil present on skin side of tuber ([2]; skin side)
O=[N+]([O-])NC1=NCCN1Cc1ccc(Cl)nc1 [Imidacloprid, imidacloprid]	9	0		
N#Cc1c[nH]cc1-c1cccc2c1OC(F)(F)O2 [Fludioxonil]			21	21
